Test results: ChEMBL document CHEMBL3244272, “Folate antagonists. 15. 2,3-Diamino-6-(2-naphthylsulfonyl)quinazoline and related 2,4-diamino-6-[(phenyl and naphthyl)sulfinyl and sulfonyl]quinazolines, a potent new class of antimetabolites with phenomenal antimalarial activity” (J Med Chem, 1979)

Experiments:
[1] = test system: Gallus gallus; test: Toxicity in trophozoite-induced Plasmodium gallinaceum infected in chick assessed as death at 30 mg/kg, sc single dose measured within 48 hrs; format: organism-based; set-up: dose 30 mg/kg, route subcutaneous; settings: chicken, in vivo
[2] = test system: Plasmodium berghei; test: Antimalarial activity against trophozoite-induced Plasmodium berghei infected in mouse assessed as change in mean survival time at 80 mg/kg, sc single dose after 72 hrs of infection; format: functional; settings: route subcutaneous
[3] = test system: Plasmodium gallinaceum; test: Antimalarial activity against sporozoite-induced Plasmodium gallinaceum infected in chick assessed as change in cured at 15 mg/kg, sc single dose; format: functional; settings: route subcutaneous
[4] = test system: Plasmodium gallinaceum; test: Antimalarial activity against trophozoite-induced Plasmodium gallinaceum infected in chick assessed as mean survival time at 60 mg/kg, sc single dose (reference value: 3.6 days); format: functional; settings: route subcutaneous
[5] = test system: Plasmodium gallinaceum; test: Antimalarial activity against sporozoite-induced Plasmodium gallinaceum infected in chick assessed as change in cured at 60 mg/kg, sc single dose; format: functional; settings: route subcutaneous
[6] = test system: Plasmodium berghei; test: Antimalarial activity against trophozoite-induced Plasmodium berghei infected in mouse assessed as change in mean survival time at 20 mg/kg, sc single dose after 72 hrs of infection; format: functional; settings: route subcutaneous
[7] = test system: Plasmodium gallinaceum; test: Antimalarial activity against trophozoite-induced Plasmodium gallinaceum infected in chick assessed as mean survival time at 120 mg/kg, sc single dose (reference value: 3.6 days); format: functional; settings: route subcutaneous
[8] = test system: Plasmodium berghei; test: Antimalarial activity against trophozoite-induced Plasmodium berghei infected in mouse assessed as change in mean survival time at 40 mg/kg, sc single dose after 72 hrs of infection; format: functional; settings: route subcutaneous
[9] = test system: Plasmodium gallinaceum; test: Antimalarial activity against sporozoite-induced Plasmodium gallinaceum infected in chick assessed as change in cured at 30 mg/kg, sc single dose; format: functional; settings: route subcutaneous
[10] = test system: Plasmodium berghei; test: Antimalarial activity against trophozoite-induced Plasmodium berghei infected in mouse assessed as change in mean survival time at 10 mg/kg, sc single dose after 72 hrs of infection; format: functional; settings: route subcutaneous
[11] = test system: Plasmodium gallinaceum; test: Antimalarial activity against trophozoite-induced Plasmodium gallinaceum infected in chick assessed as mean survival time at 30 mg/kg, sc single dose (reference value: 3.6 days); format: functional; settings: route subcutaneous

For `CC1(C)N=C(N)N=C(N)N1c1ccc(Cl)cc1.Cl` [CHLORCYCLOGUANIL HYDROCHLORIDE], the Activity [1] was “Toxic”, the MST [2] was 21.6 days and the MST [3] was 0 days. It also gave an MST [4] of 18.7 days, an MST [5] of 0.4 days and an MST [6] of 7.9 days. The MST [7] was 22.7 days, the MST [8] was 13.4 days and the MST [9] was 2.3 days. It also gave an MST [10] of 4.9 days and an MST [11] of 15.3 days.
